Source: article PMC5526877, “Structure of Chorismate Mutase-like Domain of DAHPS from Bacillus subtilis Complexed with Novel Inhibitor Reveals Conformational Plasticity of Active Site” (Scientific Reports, 2017)
Where a name gives a salt, the structure may show the parent alone. One block for each molecule: values may come before it.

Experiments:
[1] = target: T1, BsCM_2 (chorismate mutase type II N-terminal domain of DAHPS) (Bacillus subtilis, UniProt P39912); test: crystal structure at […] Å (citrate from crystallization buffer) and ITC; type: binding; parameters: gene aroA; N-terminal chorismate mutase-like domain of DAHPS (306 bp fragment), homodimer
[2] = target: T1, BsCM_2 (chorismate mutase type II N-terminal domain of DAHPS); test: ITC; also Michaelis-Menten kinetics (Km […]); type: binding; parameters: gene aroA; N-terminal chorismate mutase-like domain of DAHPS (306 bp fragment); settings: read-out: Dissociation constant, K D
[3] = target: T1, BsCM_2 (chorismate mutase type II N-terminal domain of DAHPS); test: co-crystal structure at […] Å and ITC; also competitive enzyme inhibition (Ki […], IC50 […]); type: binding; parameters: gene aroA; N-terminal chorismate mutase-like domain of DAHPS (306 bp fragment), homodimer; settings: read-out: Dissociation constant, K D
[4] = target: the molecule itself; test: crystal structure; BsCM_2 co-crystallised with chlorogenic acid (1.8 Å, P21, two monomers per asymmetric unit) and with citrate from the buffer (1.9 Å, P1, four monomers per asymmetric unit); sitting drop, 1 M ammonium sulphate, 0.1 M potassium sodium tartrate, 0.1 M sodium citrate pH 5.8, 20 °C; dimer interface analysed with PISA

Molecule: O=C(O)CC(O)(CC(=O)O)C(=O)O [CIT, citrate]
- Kd [1]: 600 µM

- Kd [2]: 725 µM
Molecule: C=C(O[C@@H]1C=C(C(=O)O)C=C[C@H]1O)C(=O)O [chorismate]

- Kd [3]: 480 µM
Molecule: O=C(/C=C/c1ccc(O)c(O)c1)O[C@@H]1C[C@](O)(C(=O)O)C[C@@H](O)[C@H]1O [CGA, chlorogenic acid]

B1: Chorismate mutase type II-like N-terminal domain (AroQ class) of 3-deoxy-D-arabino-heptulosonate-7-phosphate synthase (DAHPS) from Bacillus subtilis (domain or fragment, Bacillus subtilis strain 3256)
chain: MSNTELELLRQKADELNLQILKLINERGNVVKEIGKAKEAQGVNRFDPVRERTMLNNIIENNDGPFENSTIQHIFKEIFKAGLELQEEDH
notes: the forward primer encodes MSNTEL from the start codon, the reverse primer encodes ...QEEDH followed by a stop codon; residues 1-88 are spoken of in the structures; strain 3256 may differ; also called BsCM_2; CM_2 domain; source: E. coli BL21 (DE3), pET28c/BsCM_2, purified (HisTrap Ni-NTA, Superdex 75 SEC)
- stoichiometry N [4]: 2
